Results from PubChem BioAssay (NCI).
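Briefly, cells in 96-well plates were exposed to five compound concentrations for 48 h, and endpoints were estimated by linear interpolation. The concentration for 50% growth inhibition is given as GI50. TGI: total growth inhibition.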

Key:
Assay in all cases: NCI tumour cell line growth inhibition, 48 h
NCI-H226 lung = system: NCI-H226 lung
SK-MEL-28 melanoma = system: SK-MEL-28 melanoma
BT-549 breast = system: BT-549 breast
EKVX NSCLC = system: EKVX NSCLC
HT29 colon = system: HT29 colon
MALME-3M melanoma = system: MALME-3M melanoma
M14 melanoma = system: M14 melanoma
HCT-116 colon = system: HCT-116 colon
SW-620 colon = system: SW-620 colon
OVCAR-3 ovarian = system: OVCAR-3 ovarian
SR leukemia = system: SR leukemia

| SMILES | TGI (NCI-H226 lung) [µM] | TGI (SK-MEL-28 melanoma) [µM] | TGI (BT-549 breast) [µM] | TGI (EKVX NSCLC) [µM] | TGI (HT29 colon) [µM] | TGI (MALME-3M melanoma) [µM] | TGI (M14 melanoma) [µM] | TGI (HCT-116 colon) [µM] | TGI (SW-620 colon) [µM] | TGI (OVCAR-3 ovarian) [µM] | TGI (SR leukemia) [µM] | GI50 (NCI-H226 lung) [µM] | GI50 (MALME-3M melanoma) [µM] | GI50 (HCT-116 colon) [µM] | GI50 (OVCAR-3 ovarian) [µM] |
| --- | --- | --- | --- | --- | --- | --- | --- | --- | --- | --- | --- | --- | --- | --- | --- |
| COc1cc2c(c(OC)c1OC)C(=O)CC2N (stereo not given) | > 100 | > 100 | > 100 | > 100 | > 100 | > 100 | > 100 | > 100 | > 100 | > 100 | – | – | – | – | – |
| Nc1ccn(C2OC(COP(=O)(O)Oc3ccccc3)C(O)C2O)c(=O)n1 (stereo not given) | > 100 | > 100 | – | > 100 | > 100 | > 100 | – | > 100 | > 100 | > 100 | – | – | – | – | – |
| CC(=O)OC[C@@]12C[C@H]3C(=O)C(C)(C)C[C@H]3[C@]1(C)[C@@H](OC(C)=O)[C@]1(O)[C@H]([C@@H](OC(=O)c3ccccc3)[C@@H](C)[C@H]1OC(C)=O)[C@H]2OC(C)=O | > 20 | – | > 20 | > 20 | – | – | > 20 | > 20 | > 20 | > 20 | > 20 | – | – | – | – |
| O=C(NCc1ccccc1)c1cnc(Cl)cn1 | > 100 | > 100 | – | > 100 | > 100 | > 100 | > 100 | > 100 | > 100 | > 100 | 69.8 | – | – | – | – |
| Cc1nc(-c2nc([N+](=O)[O-])c([N+](=O)[O-])[nH]2)cs1 | > 100 | > 100 | – | > 100 | > 100 | > 100 | > 100 | > 100 | > 100 | > 100 | > 100 | – | – | – | – |
| O=C(NC(Nc1ccc(F)c(Cl)c1)(C(F)(F)F)C(F)(F)F)C(C(F)(F)F)C(F)(F)F | 64.7 | > 100 | – | > 100 | 67.9 | 62 | > 100 | 41.7 | > 100 | > 100 | > 100 | – | – | – | – |
| C[N+]1(C)CN(c2ccccc2)C2(CCN(CCCC(=O)c3cccs3)CC2)C1=O | > 100 | > 100 | – | > 100 | > 100 | > 100 | 51.9 | > 100 | > 100 | > 100 | > 100 | – | – | – | – |
| C[C@@H]1OC(=O)C[C@H]2CC(=O)N(CCc3cn(S(=O)(=O)C(F)(F)F)c4ccccc34)C[C@@H]21 | – | > 100 | > 100 | > 100 | > 100 | > 100 | > 100 | > 100 | > 100 | > 100 | – | – | – | – | – |
| COC(=O)CCCCC/C(=C\C(=O)C(Cl)(Cl)Cl)OC | – | > 100 | > 100 | 56.8 | 72.6 | 65.2 | > 100 | 49.6 | 84.3 | 70.4 | 45.2 | – | – | – | – |
| CC1(C)CCc2c(c(N=Nc3ccccc3)c3ccccc3c2O)O1 | > 100 | > 100 | > 100 | 59.5 | 34 | > 100 | 88.8 | 51.2 | > 100 | 53.1 | – | – | – | – | – |
| CC(=O)Oc1c(OC(C)=O)c(-c2ccc(O)c(O)c2)c(O)c(O)c1-c1ccc(O)cc1 | > 100 | > 100 | – | > 100 | > 100 | > 100 | – | > 100 | > 100 | > 100 | – | 79.7 | 51.3 | 36.1 | 59.5 |
| Cc1ccc(/C=N/Nc2ncccn2)s1 | > 100 | > 100 | – | > 100 | > 100 | > 100 | > 100 | > 100 | > 100 | > 100 | – | – | – | – | – |
| C[C@@H]1CCC2[C@@H](C)C(=O)O[C@@H]3C4C[C@@H]1[C@@]23OO[C@@]4(C)O (stereo not given in full) | – | > 100 | > 100 | > 100 | > 100 | > 100 | > 100 | > 100 | > 100 | > 100 | > 100 | – | – | – | – |
| CC(C)[Si](OC1=CCCCCC12C(=O)N(C)c1ccccc12)(C(C)C)C(C)C (stereo not given) | 39 | 60.4 | – | 38.6 | 41.1 | 45.8 | 49.2 | – | 35.6 | 31.8 | 67.3 | – | – | – | – |
| NC(=O)N(O)c1cccc(Br)c1 | > 100 | > 100 | > 100 | > 100 | > 100 | – | > 100 | > 100 | > 100 | > 100 | > 100 | – | – | – | – |
| CCN(CC)CCNc1ccc(C)c2sc3ccc(O)cc3c(=O)c12 | 2 | 2.96 | – | 25.9 | 3.24 | 2.38 | 2.48 | 2.56 | 2.38 | 4.4 | 0.981 | – | – | – | – |
| Nc1ncc(Cc2nc3ccccc3s2)s1 | 92.8 | > 100 | – | > 100 | > 100 | > 100 | > 100 | > 100 | > 100 | > 100 | – | – | – | – | – |
| Cc1ccc(S(=O)(=O)N/N=C2\C=C[C@]3(CC2)C(=O)N(C)c2ccccc23)cc1 | > 100 | > 100 | – | > 100 | – | – | > 100 | > 100 | > 100 | > 100 | > 100 | – | – | – | – |
| CC(C)(C)C=C=C(C(C)(C)C)P(=O)(O)O | > 100 | > 100 | – | > 100 | > 100 | > 100 | > 100 | > 100 | > 100 | > 100 | > 100 | – | – | – | – |
| COc1ccc(C)cc1NC(=S)N/N=C/c1ccc(SC)cc1 | – | > 100 | > 100 | – | > 100 | > 100 | 73.9 | > 100 | > 100 | > 100 | > 100 | – | – | – | – |
| COc1cc(CC2c3cc(OC)c(OC)cc3CCN2C)c(Oc2cc3c(cc2OC)-c2c(OC)c(OC)c(OC)c4c2C(C3)N(C)CC4)cc1OC (stereo not given) | 32.7 | 22.8 | – | 31.1 | > 36.5 | 6.67 | 5.76 | 24.3 | 30.7 | 28.2 | – | – | – | – | – |
